The values below are quoted from earlier work in paper PMC11674187, “Inhibitory Effects of Cenobamate on Multiple Human Cardiac Ion Channels and Possible Arrhythmogenic Consequences” (Biomolecules, 2024).

For the first data set, the system named is persistent INa. On the set-up: method as in ref [5] p. 8. As to conditions: other antiseizure drugs; ref [5] p. 8; cited from earlier work.
Usually IC50 stands for the concentration that inhibits the measured activity by half. As to `NC(=O)N1c2ccccc2C=Cc2ccccc21` [carbamazepine], the IC50 is 79.2 µM. As to `Nc1nnc(-c2cccc(Cl)c2Cl)c(N)n1` [lamotrigine], the IC50 was 119 µM. As to `Nc1nc2ccc(OC(F)(F)F)cc2s1` [riluzole], the concentration for half-maximal inhibition (IC50) was 2 µM.

For the next data set, the target named is Nav1.5 (Homo sapiens, UniProt Q14524). The arrangement: method as in PMID 34785211, PMID 33620150. As to conditions: PT 35–37 °C vs. room temperature; ref [11],[40]; cited from earlier work.
Chain of Nav1.5 (Q14524 whole entry): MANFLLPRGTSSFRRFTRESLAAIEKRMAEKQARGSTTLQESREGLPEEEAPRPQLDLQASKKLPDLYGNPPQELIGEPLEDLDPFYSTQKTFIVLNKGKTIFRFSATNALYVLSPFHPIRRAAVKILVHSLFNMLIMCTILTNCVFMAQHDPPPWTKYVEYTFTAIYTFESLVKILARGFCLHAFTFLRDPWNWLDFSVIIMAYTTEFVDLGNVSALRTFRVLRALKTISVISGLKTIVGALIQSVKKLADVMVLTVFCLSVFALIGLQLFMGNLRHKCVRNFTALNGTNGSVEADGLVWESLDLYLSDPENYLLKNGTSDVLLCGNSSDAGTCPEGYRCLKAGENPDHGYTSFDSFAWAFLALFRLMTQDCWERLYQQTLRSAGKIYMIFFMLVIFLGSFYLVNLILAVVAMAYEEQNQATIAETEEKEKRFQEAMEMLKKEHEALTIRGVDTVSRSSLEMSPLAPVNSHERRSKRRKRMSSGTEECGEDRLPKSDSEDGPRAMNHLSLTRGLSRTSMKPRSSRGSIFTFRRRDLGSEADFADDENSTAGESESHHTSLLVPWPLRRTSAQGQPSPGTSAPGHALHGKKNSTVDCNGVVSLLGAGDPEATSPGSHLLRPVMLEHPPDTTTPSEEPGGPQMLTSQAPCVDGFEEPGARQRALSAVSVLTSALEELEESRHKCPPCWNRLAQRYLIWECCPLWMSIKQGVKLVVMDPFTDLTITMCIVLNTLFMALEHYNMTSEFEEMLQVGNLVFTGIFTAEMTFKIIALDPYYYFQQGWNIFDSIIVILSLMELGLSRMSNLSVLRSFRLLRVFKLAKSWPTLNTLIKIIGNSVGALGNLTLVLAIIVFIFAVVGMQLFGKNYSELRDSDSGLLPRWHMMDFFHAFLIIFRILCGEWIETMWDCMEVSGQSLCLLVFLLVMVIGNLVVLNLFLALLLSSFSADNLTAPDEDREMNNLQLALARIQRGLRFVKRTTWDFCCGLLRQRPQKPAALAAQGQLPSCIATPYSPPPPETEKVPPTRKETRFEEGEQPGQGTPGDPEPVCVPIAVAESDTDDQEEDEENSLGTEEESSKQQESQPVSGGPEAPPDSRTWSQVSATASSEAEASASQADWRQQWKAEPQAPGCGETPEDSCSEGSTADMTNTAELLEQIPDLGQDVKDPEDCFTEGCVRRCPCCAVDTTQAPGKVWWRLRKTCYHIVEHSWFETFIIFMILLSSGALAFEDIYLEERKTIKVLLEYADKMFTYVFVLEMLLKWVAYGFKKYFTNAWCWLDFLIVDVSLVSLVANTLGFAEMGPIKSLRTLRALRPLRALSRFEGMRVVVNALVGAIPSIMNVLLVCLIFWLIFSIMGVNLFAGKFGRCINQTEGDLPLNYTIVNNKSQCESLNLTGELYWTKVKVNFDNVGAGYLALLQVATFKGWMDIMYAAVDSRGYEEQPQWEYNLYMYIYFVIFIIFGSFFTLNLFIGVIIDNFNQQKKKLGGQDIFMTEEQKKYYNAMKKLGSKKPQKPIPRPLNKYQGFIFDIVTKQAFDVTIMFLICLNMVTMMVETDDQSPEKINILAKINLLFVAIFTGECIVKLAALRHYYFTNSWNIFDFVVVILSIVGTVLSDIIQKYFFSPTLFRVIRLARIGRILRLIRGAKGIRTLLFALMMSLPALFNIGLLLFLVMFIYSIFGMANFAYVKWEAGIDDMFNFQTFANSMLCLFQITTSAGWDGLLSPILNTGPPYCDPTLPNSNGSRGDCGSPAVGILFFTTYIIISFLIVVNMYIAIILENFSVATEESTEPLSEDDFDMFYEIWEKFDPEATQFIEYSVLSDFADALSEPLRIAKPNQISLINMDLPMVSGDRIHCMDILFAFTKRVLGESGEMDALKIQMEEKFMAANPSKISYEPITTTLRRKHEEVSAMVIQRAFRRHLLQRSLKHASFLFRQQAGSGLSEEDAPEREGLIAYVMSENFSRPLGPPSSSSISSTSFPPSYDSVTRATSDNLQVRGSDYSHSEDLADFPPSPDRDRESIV
On to `CCN(CC)CCCC(C)Nc1ccnc2cc(Cl)ccc12` (stereo not shown) [chloroquine], for which the “change of apparent IC50 on peak Na+ current at physiological vs. room temperature” value is given as “approximately four-fold reduction”. Consider `CCN(CCO)CCCC(C)Nc1ccnc2cc(Cl)ccc12` (stereo not shown) [hydroxychloroquine], for which the “change of apparent IC50 on peak Na+ current at physiological vs. room temperature” value was “more than a two-fold reduction”.

In the next data set the test system is human ventricular cardiomyocyte electrophysiology model. The arrangement: method as in ref [18] Dutta et al., 2017. Particulars: 12-compound CiPA training set; ref [18] Dutta et al., 2017; cited from earlier work.
Consider `CC(C)COCC(CN(Cc1ccccc1)c1ccccc1)N1CCCC1` (stereo not shown) [bepridil], for which the “CiPA torsadogenic risk category” value is listed as “high risk”. Regarding `CN(C)CCCN1c2ccccc2Sc2ccc(Cl)cc21` [chlorpromazine], the “CiPA torsadogenic risk category” value is “intermediate risk”. Regarding `COc1cc(N)c(Cl)cc1C(=O)NC1CCN(CCCOc2ccc(F)cc2)CC1OC` (stereo not shown) [cisapride], the “CiPA torsadogenic risk category” value is reported as “intermediate risk”. `CN(CCOc1ccc(NS(C)(=O)=O)cc1)CCc1ccc(NS(C)(=O)=O)cc1` [dofetilide]: the “CiPA torsadogenic risk category” value is “high risk”.

For `Cc1cccc(C)c1OCC(C)N` (stereo not shown) [mexiletine], the “CiPA torsadogenic risk category” value was “low risk”.

`Cc1nccn1CC1CCc2c(c3ccccc3n2C)C1=O` (stereo not shown) [ondansetron]: the “CiPA torsadogenic risk category” value is “intermediate risk”. Take `C=C[C@H]1C[N@@]2CC[C@H]1C[C@@H]2[C@@H](O)c1ccnc2ccc(OC)cc12` [quinidine]: the “CiPA torsadogenic risk category” value is given as “high risk”. For `COc1ccccc1OCC(O)CN1CCN(CC(=O)Nc2c(C)cccc2C)CC1` (stereo not shown) [ranolazine], the “CiPA torsadogenic risk category” value is recorded as “low risk”.
